Test results taken from patent publication US20240269291A1, “Transcutol-Polyol-Active Agent Ternary Complex, Pharmaceutical Composition for Topical Use Comprising Same, Method for Obtaining Same and Use Thereof in Different Pathologies” (FUNDACIÓN GAIKER, priority 2021, published 2024).

Assays:
sick people = assay: Application of the cream on sick people; details: in vivo
Procedure: In the numerous tests that were carried out on sick people, it has been observed that the introduction of a correct concentration of polyphenols (with “correct” being understood as the fact that there are 200 mg of the polyphenol in each 5 g application of pharmaceutical composition) in a solution for topical use (preferably a cream) has very beneficial effects in treating at least the following pathologies: subcutaneous inflammations such as fasciitis and fasciosis, tendon inflammation or irritation (tendonitis), carpal tunnel inflammation, varicose vein reduction, joint inflammation and blows and bruises.

[1] = safety index of 100 times, cited from earlier work
[2] = printed as negative log P; cited from earlier work

Compound | crossing of the blood-brain barrier (sick people) | recommended limit via the dermal route ([1]; dermal route) | recommended limit via the oral route ([1]; oral route) | log P [2]
C[C@@H]1O[C@@H](OC[C@H]2O[C@@H](Oc3c(-c4ccc(O)c(O)c4)oc4cc(O)cc(O)c4c3=O)[C@H](O)[C@@H](O)[C@@H]2O)[C@H](O)[C@H](O)[C@H]1O [rutin] | able to cross the blood-brain barrier | – | – | –
CCOCCOCCO [transcutol, 2-(2-Ethoxyethoxy) ethanol] | – | 20 mg/kg | 10 mg/kg | ~0.5
